# From US8003649B2 (AstraZeneca AB, priority 2007, dated 2011)
# Biological target: T1, Androgen Receptor (AR) (Homo sapiens, UniProt P10275, T878A)
# T1 construct: cell based immuno-fluorescence assay using the LNCaP prostate epithelial cell line; endogenous in cells; host or cells: LNCaP clone FGC (ATCC CRL-1740)
# T1 sequence (P10275 1-920 T878A): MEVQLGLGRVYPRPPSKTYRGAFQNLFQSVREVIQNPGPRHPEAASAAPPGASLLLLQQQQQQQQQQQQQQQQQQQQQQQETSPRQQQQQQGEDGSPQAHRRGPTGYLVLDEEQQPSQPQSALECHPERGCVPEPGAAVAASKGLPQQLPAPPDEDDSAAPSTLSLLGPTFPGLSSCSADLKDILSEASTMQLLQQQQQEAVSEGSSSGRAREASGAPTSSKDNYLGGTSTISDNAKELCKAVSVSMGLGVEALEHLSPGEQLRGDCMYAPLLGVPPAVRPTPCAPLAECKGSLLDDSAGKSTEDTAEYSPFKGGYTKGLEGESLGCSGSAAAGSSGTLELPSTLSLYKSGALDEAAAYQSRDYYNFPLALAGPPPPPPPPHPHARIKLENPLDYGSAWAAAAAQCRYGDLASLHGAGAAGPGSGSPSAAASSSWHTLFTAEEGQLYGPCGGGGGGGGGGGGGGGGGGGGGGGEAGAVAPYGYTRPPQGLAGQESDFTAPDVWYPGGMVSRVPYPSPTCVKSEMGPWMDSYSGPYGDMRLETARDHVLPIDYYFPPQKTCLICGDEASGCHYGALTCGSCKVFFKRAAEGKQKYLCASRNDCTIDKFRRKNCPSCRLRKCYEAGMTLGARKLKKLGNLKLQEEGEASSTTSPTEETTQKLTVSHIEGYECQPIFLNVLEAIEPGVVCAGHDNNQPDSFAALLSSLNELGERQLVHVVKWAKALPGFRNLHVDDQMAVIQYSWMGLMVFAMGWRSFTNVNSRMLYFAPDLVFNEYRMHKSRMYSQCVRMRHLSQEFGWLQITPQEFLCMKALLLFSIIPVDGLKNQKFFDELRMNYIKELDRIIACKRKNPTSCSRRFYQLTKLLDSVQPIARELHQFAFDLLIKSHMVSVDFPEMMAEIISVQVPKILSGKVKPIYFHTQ
# Assay: LNCaP Androgen Receptor Down-regulation Cell Assay (immunofluorescence end point)
# Format: cell-based
# Conditions: LNCaP prostate carcinoma cells, compound incubation 20-22 hours, 50% reduction of the AR signal; read-out: Androgen Receptor Down-regulation Assay (a) IC50/μM
# In short: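 AR loss reported as IC50 from curve fits of fluorescence dose-response data, with AR immunostained and read by laser-scanning cytometry. Compound exposure was 20-22 h at 37° C in LNCaP cells grown in 5% charcoal-stripped FBS and plated overnight beforehand.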
row,Compound,DC50
1,"FC(F)(F)c1cnc(N2CCCN(c3ccc4nnc(C(F)(F)Cl)n4n3)CC2)c(Cl)c1 [Example 351, 3-[chloro(difluoro)methyl]-6-[4-[3-chloro-5-(trifluoromethyl)pyridin-2-yl]-1,4-diazepan-1-yl][1,2,4]triazolo[4,3-b]pyridazine]",1.9 µM
2,"CC1CN(Cc2ccccc2)CCN1c1ccc2nnc(C(F)(F)Cl)n2n1 (stereo not shown) [Example 352, 6-(4-benzyl-2-methylpiperazin-1-yl)-3-[chloro(difluoro)methyl][1,2,4]triazolo[4,3-b]pyridazine]",0.57 µM
3,"Cc1cccc(C)c1N1CCN(c2ccc3nnc(C(F)(F)Cl)n3n2)CC1 [Example 353, 3-[chloro(difluoro)methyl]-6-[4-(2,6-dimethylphenyl)piperazin-1-yl][1,2,4]triazolo[4,3-b]pyridazine]",0.69 µM
4,"FC(F)(Cl)c1nnc2ccc(N3CC4CN(Cc5ccccc5)CC4C3)nn12 (stereo not shown) [Example 354, 6-(5-benzylhexahydropyrrolo[3,4-c]pyrrol-2(1H)-yl)-3-[chloro(difluoro)methyl][1,2,4]triazolo[4,3-b]pyridazine]",2.7 µM
5,"FC(F)(Cl)c1nnc2ccc(N3CCCC(c4ccccc4)CC3)nn12 (stereo not shown) [Example 355, 3-[chloro(difluoro)methyl]-6-(4-phenylazepan-1-yl)[1,2,4]triazolo[4,3-b]pyridazine]",0.72 µM
6,"FC(F)(Cl)c1nnc2ccc(N3CCN(Cc4cccs4)CC3)nn12 [Example 356, 3-[chloro(difluoro)methyl]-6-[4-(thiophen-2-ylmethyl)piperazin-1-yl][1,2,4]triazolo[4,3-b]pyridazine]",2.2 µM
7,"FC(F)(Cl)c1nnc2ccc(N3CCN(Cc4ccsc4)CC3)nn12 [Example 357, 3-[chloro(difluoro)methyl]-6-[4-(thiophen-3-ylmethyl)piperazin-1-yl][1,2,4]triazolo[4,3-b]pyridazine]",2.1 µM
8,"C[C@H]1CN(Cc2ccncc2)CCN1c1ccc2nnc(C(F)(F)F)n2n1 [Example 358, 6-[(2S)-2-methyl-4-(pyridin-4-ylmethyl)piperazin-1-yl]-3-(trifluoromethyl)[1,2,4]triazolo[4,3-b]pyridazine]",6.7 µM
9,C[C@H]1CN(Cc2ccccn2)CCN1c1ccc2nnc(C(F)(F)F)n2n1 [Example 359],2.6 µM
10,C[C@H]1CN(Cc2cccc(Br)n2)CCN1c1ccc2nnc(C(F)(F)F)n2n1 [Example 360],1 µM
11,C[C@H]1CN(Cc2ccc(C(F)(F)F)nc2)CCN1c1ccc2nnc(C(F)(F)F)n2n1 [Example 361],4.7 µM
12,C[C@H]1CN(Cc2cncc(F)c2)CCN1c1ccc2nnc(C(F)(F)F)n2n1 [Example 366],> 33 µM
13,"FC(F)(F)c1nnc2ccc(N3CCN(Cc4cccc(Br)n4)CC3)nn12 [Example 367, 6-[4-[(6-bromopyridin-2-yl)methyl]piperazin-1-yl]-3-(trifluoromethyl)[1,2,4]triazolo[4,3-b]pyridazine]",4.1 µM
14,FC(F)(F)c1nnc2ccc(N3CCN(Cc4cccnc4Cl)CC3)nn12 [Example 369],8.7 µM
15,"FC(F)(F)c1nnc2ccc(N3CCN(Cc4ccc(Br)nc4)CC3)nn12 [Example 374, 6-[4-[(6-bromopyridin-3-yl)methyl]piperazin-1-yl]-3-(trifluoromethyl)[1,2,4]triazolo[4,3-b]pyridazine]",0.93 µM
16,FC(F)(F)c1nnc2ccc(N3CCN(Cc4cccnc4Br)CC3)nn12 [Example 376],3 µM
17,FC(F)(F)c1nnc2ccc(N3CCN(Cc4cnccc4Br)CC3)nn12 [Example 377],5.9 µM
18,N#Cc1cc(F)c(CN2CCN(c3ccc4nnc(C(F)(F)F)n4n3)CC2)c(F)c1 [Example 380],4.2 µM
19,Fc1cccc(CN2CCN(c3ccc4nnc(C(F)(F)F)n4n3)CC2)c1F [Example 381],2.1 µM
20,Fc1ccc(CN2CCN(c3ccc4nnc(C(F)(F)F)n4n3)CC2)c(F)c1 [Example 382],1.8 µM
21,Fc1cccc(F)c1CN1CCN(c2ccc3nnc(C(F)(F)F)n3n2)CC1 [Example 384],2.9 µM
22,COc1ccc(CN2CCN(c3ccc4nnc(C(F)(F)F)n4n3)CC2)c(F)c1 [Example 385],2.1 µM
23,Fc1ccc(F)c(CN2CCN(c3ccc4nnc(C(F)(F)F)n4n3)CC2)c1 [Example 386],2.4 µM
24,COc1ccc(CN2CCN(c3ccc4nnc(C(F)(F)F)n4n3)CC2)cc1F [Example 388],1.6 µM
25,N#Cc1ccc(CN2CCN(c3ccc4nnc(C(F)(F)F)n4n3)CC2)c(F)c1 [Example 389],1.5 µM
26,COc1ccc(F)c(CN2CCN(c3ccc4nnc(C(F)(F)F)n4n3)CC2)c1 [Example 390],1.7 µM

row,Compound,DC50
1,Fc1cc(F)cc(CN2CCN(c3ccc4nnc(C(F)(F)F)n4n3)CC2)c1 [Example 391],2.7 µM
2,"O=S(=O)(c1ccc2ccccc2c1)N1CCN(c2ccc3nnc(C(F)(F)F)n3n2)CC1 [Example 394, 6-[4-(naphthalen-2-ylsulfonyl)piperazin-1-yl]-3-(trifluoromethyl)[1,2,4]triazolo[4,3-b]pyridazine]",5.6 µM
3,COc1cccc(S(=O)(=O)N2CCN(c3ccc4nnc(C(F)(F)F)n4n3)CC2)c1 [Example 396],1.8 µM
4,COc1ccccc1S(=O)(=O)N1CCN(c2ccc3nnc(C(F)(F)F)n3n2)CC1 [Example 397],3.9 µM
5,COc1ccc(S(=O)(=O)N2CCN(c3ccc4nnc(C(F)(F)F)n4n3)CC2)cc1 [Example 398],1.9 µM
6,COc1ccc(OC)c(S(=O)(=O)N2CCN(c3ccc4nnc(C(F)(F)F)n4n3)CC2)c1 [Example 399],3.7 µM
7,N#Cc1ccccc1S(=O)(=O)N1CCN(c2ccc3nnc(C(F)(F)F)n3n2)CC1 [Example 403],4.8 µM
8,COc1ccc(S(=O)(=O)N2CCN(c3ccc4nnc(C(F)(F)F)n4n3)CC2)c(OC)c1 [Example 404],2.7 µM
9,O=S(=O)(c1ccc(F)cc1)N1CCN(c2ccc3nnc(C(F)(F)F)n3n2)CC1 [Example 405],3 µM
10,"CN(Cc1cccnc1)C1CCN(c2ccc3nnc(C(F)(F)F)n3n2)CC1 [Example 406, N-methyl-N-(pyridin-3-ylmethyl)-1-[3-(trifluoromethyl)[1,2,4]triazolo[4,3-b]pyridazin-6-yl]piperidin-4-amine]",6.3 µM
11,CN(Cc1ccc(F)cc1)C1CCN(c2ccc3nnc(C(F)(F)F)n3n2)CC1 [Example 407],5.7 µM
12,CN(Cc1ccc(F)c(F)c1)C1CCN(c2ccc3nnc(C(F)(F)F)n3n2)CC1 [Example 408],1.7 µM
13,CN(Cc1ccc(C#N)cc1)C1CCN(c2ccc3nnc(C(F)(F)F)n3n2)CC1 [Example 409],3.9 µM
14,CN(Cc1cc(F)cc(F)c1)C1CCN(c2ccc3nnc(C(F)(F)F)n3n2)CC1 [Example 410],2.1 µM
15,CN(Cc1ccc(F)c(C#N)c1)C1CCN(c2ccc3nnc(C(F)(F)F)n3n2)CC1 [Example 411],2.2 µM
16,"CN(CCO)C(=O)c1ccc(OC2CCN(c3ccc4nnc(C(F)(F)F)n4n3)CC2)cc1 [Example 412, N-(2-hydroxyethyl)-N-methyl-4-[[1-[3-(trifluoromethyl)-[1,2,4]triazolo[4,3-b]pyridazin-6-yl]piperidin-4-yl]oxy]benzamide]",9.1 µM
17,O=C(NCCN1CCCC1)c1ccc(OC2CCN(c3ccc4nnc(C(F)(F)F)n4n3)CC2)cc1 [Example 413],1.9 µM
18,CN1CCN(C(=O)c2ccc(OC3CCN(c4ccc5nnc(C(F)(F)F)n5n4)CC3)cc2)CC1 [Example 414],> 10 µM
19,COCCNC(=O)c1ccc(OC2CCN(c3ccc4nnc(C(F)(F)F)n4n3)CC2)cc1 [Example 416],2.7 µM
20,CN(C)C(=O)c1ccc(OC2CCN(c3ccc4nnc(C(F)(F)F)n4n3)CC2)cc1 [Example 417],4.6 µM
21,O=C(c1ccc(OC2CCN(c3ccc4nnc(C(F)(F)F)n4n3)CC2)cc1)N1CC[C@@H](O)C1 [Example 418],> 14 µM
22,O=C(c1ccc(OC2CCN(c3ccc4nnc(C(F)(F)F)n4n3)CC2)cc1)N1CCOCC1 [Example 420],5.9 µM
23,O=C(NCCN1CCOCC1)c1ccc(OC2CCN(c3ccc4nnc(C(F)(F)F)n4n3)CC2)cc1 [Example 424],2.2 µM
24,COCCN(C)C(=O)c1ccc(OC2CCN(c3ccc4nnc(C(F)(F)F)n4n3)CC2)cc1 [Example 425],3.6 µM
25,CN1CCC(NC(=O)c2ccc(OC3CCN(c4ccc5nnc(C(F)(F)F)n5n4)CC3)cc2)CC1 [Example 427],4.3 µM
26,CN(C)CCNC(=O)c1ccc(OC2CCN(c3ccc4nnc(C(F)(F)F)n4n3)CC2)cc1 [Example 429],2.6 µM
